This test deals with DNA ligase A (Mycobacterium tuberculosis (strain ATCC 25618 / H37Rv), UniProt P9WNV1). Briefly: Enzyme Assay. The text has this:
All assays have been carried out using procedures previously described by our group (Srivastava et al., 2005a; 2005b; 2007)

Broadly, the IC50 is the concentration that inhibits the measured activity by half. Lower therefore signals inhibition by little substance. The compound `CC1(C)O[C@H]2OC(C(CCO)NCCCN[C@@H](CCO)C3O[C@@H]4OC(C)(C)O[C@@H]4[C@H]3OCc3ccccc3)[C@H](OCc3ccccc3)[C@H]2O1` (stereo partly specified) [Glycosylamine, 4] yielded an IC50 of 46.2 µM.

The record behind these values is BindingDB's records for doi:10.1007/s00044-007-9052-5 (Central Drug Research Institute, 2008).
